Measurements as given in the supplement of paper PMC4862054.

Legend:
Assay in all cases: drug sensitivity score (DSS), CellTox Green (DSS (AUC-based score)); higher = stronger drug effect (viability inhibition or cytotoxicity); extreme values may be limits of the assay
Details in all cases: incubation time: 72 h
[1] = tested on: CAL-51
Outline: (§1)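 Plates with 384 wells held compound at 5 concentrations in 10-fold steps over a 10,000-fold range specific to each compound. Breast cancer cell lines were added in 20 µl suspension and incubated 72 h, then read for CellTox Green and CellTiter-Glo signals, with each plate normalised to 0.1 % DMSO and a positive kill control. The drug sensitivity score is based on the area under the fitted dose-response curve.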

[2] = tested on: BT-474
Outline: as §1

[3] = tested on: BT-549
Outline: as §1

[4] = tested on: HCC1937
Outline: as §1

[5] = tested on: DU-4475
Outline: as §1

[6] = tested on: HCC1143
Outline: as §1

[7] = tested on: MCF-10A
Outline: as §1

[8] = tested on: CAL-148
Outline: as §1

[9] = tested on: MFM-223
Outline: as §1

[10] = tested on: HCC1599
Outline: as §1

SMILES	drug sensitivity score [1]	drug sensitivity score [2]	drug sensitivity score [3]	drug sensitivity score [4]	drug sensitivity score [5]	drug sensitivity score [6]	drug sensitivity score [7]	drug sensitivity score [8]	drug sensitivity score [9]	drug sensitivity score [10]
CO[C@@]12[C@H](COC(N)=O)C3=C(C(=O)C(C)=C(N)C3=O)N1C[C@@H]1N[C@@H]12 [Mitomycin C]	17.2	0	0	0	0	1.5	0	1.72	1.79	0
Cc1cc(Nc2nc(N[C@@H](C)c3ncc(F)cn3)ncc2Cl)[nH]n1 [AZD1480]	0	0	0.354	0	0	0	0	0	1.25	0
CC(C)(C)c1nc(-c2cccc(NS(=O)(=O)c3c(F)cccc3F)c2F)c(-c2ccnc(N)n2)s1 [Dabrafenib]	0	0	0	1.11	3.29	0	0	1.13	0	0
CCNC(=O)c1noc(-c2cc(C(C)C)c(O)cc2O)c1-c1ccc(CN2CCOCC2)cc1 [NVP-AUY922]	6.99	3.93	0	0.92	5.69	0	13.6	12.7	0	0
CC[C@H](CO)Nc1nc(NCc2ccccc2)c2ncn(C(C)C)c2n1 [Seliciclib]	0	0	0	0	0	0	0	0	1.03	0
CCN(CC)CCCC(C)Nc1ccnc2cc(Cl)ccc12 (stereo not given) [Chloroquine]	3.75	14.7	1.78	5.9	1.64	0	7.9	11.8	9.2	2.54
O=[N+]([O-])c1ccc2c(c1)S(=O)(=O)C=C2 [Stattic]	16.9	15.9	19.8	25	0	6.3	19.5	9.88	16.3	0
O=C(CCCCCCC(=O)Nc1ccccc1)NO [Vorinostat]	6.5	2.68	0.875	0	0	1.23	0	1.45	0	0
CC1(COc2ccc3c(c2)ncn3-c2ccc3cccc(N4CCC(N)CC4)c3n2)COC1 [Crenolanib]	4.42	5.99	4.07	0	0.612	1.14	5.3	6.78	0	0
C=CCN(/C=C1/C(=O)O[C@H](COC)[C@@]2(C)C1=C(O)C(=O)C1=C2[C@H](OC(C)=O)C[C@]2(C)C(=O)CC[C@@H]12)CC=C [Sonolisib]	0	0	0	0	0	0	0	0	0	0
CC(=O)[C@]1(O)Cc2c(O)c3c(c(O)c2[C@@H](O[C@H]2C[C@H](N)[C@H](O)[C@H](C)O2)C1)C(=O)c1ccccc1C3=O [Idarubicin]	9.49	4.95	0	0	0.488	0	1.59	12.7	1.56	0
CN[C@@H](C)C(=O)N[C@H]1CN(C(=O)CC(C)C)CC[C@H]2CC[C@@H](C(=O)NC(c3ccccc3)c3ccccc3)N2C1=O [AT-406]	0	0.17	8.86	0	0	0	0	–	0	0
CCn1c(C(=O)N(C2CC2)C2CC2)cc2c3c(ncn3C)c(Nc3cc(C)n(C)n3)nc21	0	0	–	3.5	0	1.62	0	0	0	0
CN(C)C(=N)NC(=N)N [Metformin]	8.43	0	–	0	0	–	0	0	0	1.75
CO[C@@H]1[C@H](N(C)C(=O)c2ccccc2)C[C@H]2O[C@]1(C)n1c3ccccc3c3c4c(c5c6ccccc6n2c5c31)C(=O)NC4 [Midostaurin]	29.9	0.973	12.6	0	0	0	0	–	0	0
C=CCn1c(=O)c2cnc(Nc3ccc(N4CCN(C)CC4)cc3)nc2n1-c1cccc(C(C)(C)O)n1 [MK1775]	15.7	6.62	9.39	0	0	3.3	8.71	21.1	5.91	4.9
